Assay results taken from PubChem BioAssay AID248 (DTP/NCI, 2004).
Where “and” joins values, the source holds several entries; their conditions need not be identical. Equal values may be shown once. Toxic doses and inconclusive results are not listed. No stated cut-off is given here; in the data, active means T/C of 150% or more; inactive means T/C below 125%.

System: L1210 leukemia ip in BDF1 mice, survival T/C
Assay: NCI In Vivo Anticancer Drug Screen. Data for tumor model L1210 Leukemia (intraperitoneal) in B6D2F1 (BDF1) mice
Conditions: endpoint: mean survival time, higher = longer survival
How it was run: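 Transplantable tumor model; survival measured in treated vs vehicle control mice. Value = treated/control.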

[1] = dose: 10.0 mg/kg/injection, schedule: Q01DX001 (ip), vehicle: other
[2] = dose: 100.0 mg/kg/injection, schedule: Q01DX009 (ip), vehicle: Klucel (hydroxypropylcellulose) (HPC)
[3] = dose: 200.0 mg/kg/injection, schedule: Q01DX009 (ip), vehicle: Klucel (hydroxypropylcellulose) (HPC)
[4] = dose: 100.0 mg/kg/injection, schedule: Q04DX002 (ip), vehicle: saline with Tween-80
[5] = dose: 200.0 mg/kg/injection, schedule: Q04DX002 (ip), vehicle: saline with Tween-80
[6] = dose: 400.0 mg/kg/injection, schedule: Q04DX002 (ip), vehicle: saline with Tween-80
[7] = dose: 100.0 mg/kg/injection, schedule: Q01DX009 (ip), vehicle: saline with Tween-80
[8] = dose: 200.0 mg/kg/injection, schedule: Q01DX009 (ip), vehicle: saline with Tween-80
[9] = dose: 50.0 mg/kg/injection, schedule: Q01DX009 (ip), vehicle: saline
[10] = dose: 100.0 mg/kg/injection, schedule: Q01DX001 (ip), vehicle: saline
[11] = dose: 100.0 mg/kg/injection, schedule: Q04DX003 (ip), vehicle: saline
[12] = dose: 200.0 mg/kg/injection, schedule: Q04DX003 (ip), vehicle: saline
[13] = dose: 100.0 mg/kg/injection, schedule: Q01DX001 (ip), vehicle: saline with Tween-80
[14] = dose: 100.0 mg/kg/injection, schedule: Q04DX003 (ip), vehicle: saline with Tween-80
[15] = dose: 200.0 mg/kg/injection, schedule: Q01DX001 (ip), vehicle: saline with Tween-80
[16] = dose: 400.0 mg/kg/injection, schedule: Q01DX001 (ip), vehicle: saline with Tween-80
[17] = dose: 400.0 mg/kg/injection, schedule: Q04DX003 (ip), vehicle: saline with Tween-80
[18] = dose: 400.0 mg/kg/injection, schedule: Q01DX009 (ip), vehicle: saline with Tween-80

Measured: T/C

CC(C)CCC[C@@H](C)[C@H]1CC[C@H]2[C@@H]3CC[C@H]4C[C@H](NC(=O)N(CCCl)N=O)CC[C@]4(C)[C@H]3CC[C@]12C
inactive: [1] 103 % of control | dose: 23.0 mg/kg/injection, schedule: Q01DX001 (ip), vehicle: other 95 % of control | dose: 46.0 mg/kg/injection, schedule: Q01DX001 (ip), vehicle: other 104 % of control | dose: 93.0 mg/kg/injection, schedule: Q01DX001 (ip), vehicle: other 103 % of control | dose: 187.0 mg/kg/injection, schedule: Q01DX001 (ip), vehicle: other 103 % of control | dose: 375.0 mg/kg/injection, schedule: Q01DX001 (ip), vehicle: other 110 % of control | dose: 500.0 mg/kg/injection, schedule: Q01DX001 (ip), vehicle: other 104 % of control | dose: 1000.0 mg/kg/injection, schedule: Q01DX001 (ip), vehicle: other 119 % of control

CCN(CC)c1ccc2nc3ccc(N(CC)CC)cc3[n+](-c3ccccc3)c2c1
inactive: dose: 3.0 mg/kg/injection, schedule: Q01DX009 (ip), vehicle: saline 111 % of control | dose: 6.0 mg/kg/injection, schedule: Q01DX009 (ip), vehicle: saline 115 % of control

CC1(CO)CCCC2(C)C3=C(CCCC3)CCC12 (stereo not drawn)
inactive: dose: 5.0 mg/kg/injection, schedule: Q01DX001 (ip), vehicle: other 102 % of control | [1] 96 % of control | dose: 20.0 mg/kg/injection, schedule: Q01DX001 (ip), vehicle: other 100 % of control | dose: 40.0 mg/kg/injection, schedule: Q01DX001 (ip), vehicle: other 98 % of control | dose: 80.0 mg/kg/injection, schedule: Q01DX001 (ip), vehicle: other 98 % of control

ClC(c1ccccc1)C1(Br)C=c2ccccc2=C1 (stereo not drawn)
inactive: [2] 97 % of control | [3] 97 % of control | dose: 200.0 mg/kg/injection, schedule: Q04DX003 (ip), vehicle: Klucel (hydroxypropylcellulose) (HPC) 105 % of control and 91 % of control | dose: 400.0 mg/kg/injection, schedule: Q04DX003 (ip), vehicle: Klucel (hydroxypropylcellulose) (HPC) 94 % of control and 103 % of control

O=C1c2cccc3cccc(c23)C1(Br)C(Br)c1ccccc1 (stereo not drawn)
inactive: [4] 97 % of control | [5] 97 % of control | [6] 97 % of control

c1ccc(-c2noc(-c3ccccc3)n2)cc1
inactive: dose: 62.5 mg/kg/injection, schedule: Q04DX002 (ip), vehicle: Klucel (hydroxypropylcellulose) (HPC) 90 % of control | dose: 125.0 mg/kg/injection, schedule: Q04DX002 (ip), vehicle: Klucel (hydroxypropylcellulose) (HPC) 87 % of control | dose: 250.0 mg/kg/injection, schedule: Q04DX002 (ip), vehicle: Klucel (hydroxypropylcellulose) (HPC) 93 % of control

COc1ccc(C)cc1NC(=O)OCCOc1ccc([N+](=O)[O-])cc1
inactive: dose: 50.0 mg/kg/injection, schedule: Q01DX009 (ip), vehicle: saline with Tween-80 93 % of control | [7] 97 % of control | [8] 93 % of control

CC1(C)N=C(N)N=C(N)N1c1ccc(OCC(=O)Nc2ccc(S(=O)(=O)F)cc2)c(Cl)c1
inactive: dose: 50.0 mg/kg/injection, schedule: Q01DX009 (ip), vehicle: carboxymethylcellulose (CMC) 106 % of control and 117 % of control | [9] 109 % of control | dose: 100.0 mg/kg/injection, schedule: Q01DX009 (ip), vehicle: carboxymethylcellulose (CMC) 114 % of control | dose: 400.0 mg/kg/injection, schedule: Q01DX009 (ip), vehicle: carboxymethylcellulose (CMC) 94 % of control | dose: 400.0 mg/kg/injection, schedule: Q01DX009 (ip), vehicle: saline 109 % of control

CC[n+]1c(COCCOc2ccccc2)sc2cc3c(cc21)OCO3
inactive: [10] 101 % of control

O=C1OCCN1CCO
inactive: [11] 97 % of control | [12] 102 % of control | dose: 400.0 mg/kg/injection, schedule: Q04DX003 (ip), vehicle: saline 108 % of control

C=C(C)C(=Nc1ccc(Cl)c(Cl)c1)N(C)C
inactive: dose: 55.0 mg/kg/injection, schedule: Q01DX Z (ip), vehicle: methylcellulose (MC) 98 % of control | dose: 83.0 mg/kg/injection, schedule: Q01DX Z (ip), vehicle: methylcellulose (MC) 93 % of control | dose: 125.0 mg/kg/injection, schedule: Q01DX Z (ip), vehicle: methylcellulose (MC) 93 % of control

N#C/C(=C\C=C\C1CCCCC1)C1CCC([N+](=O)[O-])CC1 (stereo not drawn)
inactive: [4] 105 % of control | [5] 94 % of control | [6] 91 % of control

Cc1ccc(S(=O)(=O)N2CCCC(=O)c3ccccc32)cc1
inactive: dose: 100.0 mg/kg/injection, schedule: Q01DX001 (ip), vehicle: carboxymethylcellulose (CMC) 107 % of control | dose: 200.0 mg/kg/injection, schedule: Q01DX001 (ip), vehicle: carboxymethylcellulose (CMC) 100 % of control | dose: 400.0 mg/kg/injection, schedule: Q01DX001 (ip), vehicle: carboxymethylcellulose (CMC) 102 % of control

C=C(Br)CNC(C)=O
inactive: dose: 12.5 mg/kg/injection, schedule: Q01DX009 (ip), vehicle: saline 113 % of control | dose: 25.0 mg/kg/injection, schedule: Q01DX009 (ip), vehicle: saline 106 % of control | [9] 98 % of control | dose: 100.0 mg/kg/injection, schedule: Q01DX009 (ip), vehicle: saline 120 % of control | [11] 113 % of control | [12] 113 % of control

CCCCN1C(=O)c2cccnc2C1=O
inactive: dose: 75.0 mg/kg/injection, schedule: Q04DX003 (ip), vehicle: Klucel (hydroxypropylcellulose) (HPC) 102 % of control | [13] 103 % of control | [14] 103 % of control | dose: 150.0 mg/kg/injection, schedule: Q04DX003 (ip), vehicle: Klucel (hydroxypropylcellulose) (HPC) 96 % of control | [15] 97 % of control | dose: 300.0 mg/kg/injection, schedule: Q04DX003 (ip), vehicle: Klucel (hydroxypropylcellulose) (HPC) 95 % of control | [16] 93 % of control | [17] 95 % of control

CCCOC1=C2CCCCC2CC1 (stereo not drawn)
inactive: [10] 113 % of control | dose: 200.0 mg/kg/injection, schedule: Q01DX001 (ip), vehicle: saline 113 % of control | dose: 400.0 mg/kg/injection, schedule: Q01DX001 (ip), vehicle: saline 102 % of control

COc1ccccc1NC(=O)Nc1ccc(N(C)C)cc1
inactive: [7] 91 % of control | [14] 86 % of control | [8] 96 % of control | dose: 200.0 mg/kg/injection, schedule: Q04DX003 (ip), vehicle: saline with Tween-80 94 % of control | [18] 102 % of control | [17] 95 % of control

C=C[C@H]1CN2CC[C@H]1C[C@@H]2[C@@H](O)c1ccnc2ccccc12
inactive: [2] 101 % of control | dose: 100.0 mg/kg/injection, schedule: Q04DX002 (ip), vehicle: Klucel (hydroxypropylcellulose) (HPC) 103 % of control | [3] 93 % of control | dose: 200.0 mg/kg/injection, schedule: Q04DX002 (ip), vehicle: Klucel (hydroxypropylcellulose) (HPC) 103 % of control | dose: 400.0 mg/kg/injection, schedule: Q01DX009 (ip), vehicle: Klucel (hydroxypropylcellulose) (HPC) 93 % of control | dose: 400.0 mg/kg/injection, schedule: Q04DX002 (ip), vehicle: Klucel (hydroxypropylcellulose) (HPC) 96 % of control

NC(=NCc1ccccc1)C(F)(F)C(F)(F)F
inactive: dose: 44.0 mg/kg/injection, schedule: Q01DX Z (ip), vehicle: other 103 % of control and 118 % of control | dose: 66.0 mg/kg/injection, schedule: Q01DX Z (ip), vehicle: other 100 % of control and 101 % of control | dose: 100.0 mg/kg/injection, schedule: Q01DX Z (ip), vehicle: other 103 % of control and 90 % of control | dose: 150.0 mg/kg/injection, schedule: Q01DX Z (ip), vehicle: other 92 % of control and 90 % of control

O=C(COc1ccccc1)NC(=S)Nc1ccc(F)c([N+](=O)[O-])c1
inactive: [13] 113 % of control | [7] 100 % of control and 86 % of control | [4] 94 % of control and 119 % of control | [15] 98 % of control | [8] 99 % of control and 116 % of control | [5] 102 % of control and 103 % of control | [16] 95 % of control | [18] 102 % of control | [6] 104 % of control and 87 % of control
